Measured values taken from patent US12157717B2, “Compounds for the treatment of bovine or swine respiratory disease” (Intervet Inc., priority 2018, dated 2024).
≈ marks a conversion by molar mass, not a printed value.

Assays:
Format in all cases: cell-based
[1] = system: Pasteurella multocida PM 6391 (ATCC 43137); experiment: MIC, broth-microdilution (CLSI), strain PM 6391; details: Pasteurella multocida ATCC 43137, reference strain
Procedure: (§1) The Minimum inhibitory concentrations (MIC) of compounds according to the invention for a number of veterinary bacterial pathogens were determined by the broth-microdilution method according to CLSI document VETO 1-A4.
(§2) Microdilution trays containing a doubling dilution series of the test compound were used for the tests. The MIC results were interpreted according to the CLSI documents VET01-S3. The lowest concentration of compound at which no visible growth (i.e. no turbidity) detected by the unaided eye was recorded as the MIC.

[2] = system: Pasteurella multocida PM 6267 (P 2225 (L386)); experiment: MIC, broth-microdilution (CLSI), strain PM 6267; details: Pasteurella multocida P 2225 (L386), reference strain (mouse infection strain)
Procedure: as §1, §2

[3] = system: Mannheimia haemolytica MH 13065 (XB0446-6003.9); experiment: MIC, broth-microdilution (CLSI), strain MH 13065; details: Mannheimia haemolytica XB0446-6003.9, BRD field isolate
Procedure: as §1, §2

[4] = system: Mannheimia haemolytica MH 6357 (M7/2); experiment: MIC, broth-microdilution (CLSI), strain MH 6357; details: Mannheimia haemolytica M7/2, reference strain (cattle infection strain)
Procedure: as §1, §2

[5] = system: Mannheimia haemolytica MH 12587 (1071), macrolide-resistance: erm+, E+; experiment: MIC, broth-microdilution (CLSI), strain MH 12587; details: Mannheimia haemolytica 1071, BRD field isolate
Procedure: as §1, §2

[6] = system: Mannheimia haemolytica MH 10720 (154); experiment: MIC, broth-microdilution (CLSI), strain MH 10720; details: Mannheimia haemolytica 154, BRD field isolate
Procedure: as §1, §2

[7] = system: Pasteurella multocida PM 12080 (IV102277-0093); experiment: MIC, broth-microdilution (CLSI), strain PM 12080; details: Pasteurella multocida IV102277-0093, BRD field isolate
Procedure: as §1, §2

[8] = system: Mannheimia haemolytica MH 13093 (XB0472-6014.1); experiment: MIC, broth-microdilution (CLSI), strain MH 13093; details: Mannheimia haemolytica XB0472-6014.1, BRD field isolate
Procedure: as §1, §2

[9] = system: Pasteurella multocida PM 10775 (080130003051); experiment: MIC, broth-microdilution (CLSI), strain PM 10775; details: Pasteurella multocida 080130003051, BRD field isolate
Procedure: as §1, §2

[10] = system: Mannheimia haemolytica MH 6374 (ATCC 33396); experiment: MIC, broth-microdilution (CLSI), strain MH 6374; details: Mannheimia haemolytica ATCC 33396, reference strain
Procedure: as §1, §2

SMILES | MIC PM 6391 [1] | MIC PM 6267 [2] | MIC MH 13065 [3] | MIC MH 6357 [4] | MIC MH 12587 [5] | MIC MH 10720 [6] | MIC PM 12080 [7] | MIC MH 13093 [8] | MIC PM 10775 [9] | MIC MH 6374 [10]
CNC(=O)C(C(=O)NO)N(C)C(=O)c1ccc(C#Cc2ccc(CNCc3ccccc3)cc2)cc1 (centres unmarked) [Compound 23] | 1.6 µM (≈ 0.775 µg/mL) | 0.4 µM (≈ 0.194 µg/mL) | 1.6 µM (≈ 0.775 µg/mL) | 1.6 µM (≈ 0.775 µg/mL) | 3.1 µM (≈ 1.5 µg/mL) | 0.4 µM (≈ 0.194 µg/mL) | 0.8 µM (≈ 0.388 µg/mL) | 1.6 µM (≈ 0.775 µg/mL) | ≤0.1 µM | 0.8 µM (≈ 0.388 µg/mL)
CNC(=O)C(C(=O)NO)N(C)C(=O)c1ccc(C#Cc2ccc(CNCc3ccc(OC)cc3)cc2)cc1 (centres unmarked) [Compound 24] | 1.6 µM (≈ 0.823 µg/mL) | 0.4 µM (≈ 0.206 µg/mL) | 3.1 µM (≈ 1.6 µg/mL) | 1.6 µM (≈ 0.823 µg/mL) | 12.5 µM (≈ 6.43 µg/mL) | 0.8 µM (≈ 0.412 µg/mL) | 1.6 µM (≈ 0.823 µg/mL) | 6.3 µM (≈ 3.24 µg/mL) | ≤0.1 µM | 1.6 µM (≈ 0.823 µg/mL)
CNC(=O)C(C(=O)NO)N(C)C(=O)c1ccc(C#Cc2ccc(CN3CCCC3)cc2)cc1 (centres unmarked) [Compound 25] | 3.1 µM (≈ 1.39 µg/mL) | 1.6 µM (≈ 0.718 µg/mL) | 6.3 µM (≈ 2.83 µg/mL) | 6.3 µM (≈ 2.83 µg/mL) | 12.5 µM (≈ 5.61 µg/mL) | 3.1 µM (≈ 1.39 µg/mL) | 1.6 µM (≈ 0.718 µg/mL) | 12.5 µM (≈ 5.61 µg/mL) | 0.4 µM (≈ 0.179 µg/mL) | 6.3 µM (≈ 2.83 µg/mL)
CNC(=O)C(C(=O)NO)N(C)C(=O)c1ccc(C#Cc2ccc(CNC3CCCC3)cc2)cc1 (centres unmarked) [Compound 26] | 1.6 µM (≈ 0.74 µg/mL) | 0.8 µM (≈ 0.37 µg/mL) | 12.5 µM (≈ 5.78 µg/mL) | 6.3 µM (≈ 2.91 µg/mL) | 25 µM (≈ 11.6 µg/mL) | 3.1 µM (≈ 1.43 µg/mL) | 1.6 µM (≈ 0.74 µg/mL) | 25 µM (≈ 11.6 µg/mL) | 0.4 µM (≈ 0.185 µg/mL) | 12.5 µM (≈ 5.78 µg/mL)
CCCNCc1ccc(C#Cc2ccc(C(=O)N(C)C(C(=O)NC)C(=O)NO)cc2)cc1 (centres unmarked) [Compound 27] | 3.1 µM (≈ 1.35 µg/mL) | 0.2 µM (≈ 0.0873 µg/mL) | 6.3 µM (≈ 2.75 µg/mL) | 6.3 µM (≈ 2.75 µg/mL) | 12.5 µM (≈ 5.46 µg/mL) | 1.6 µM (≈ 0.698 µg/mL) | 1.6 µM (≈ 0.698 µg/mL) | 12.5 µM (≈ 5.46 µg/mL) | 0.4 µM (≈ 0.175 µg/mL) | 6.3 µM (≈ 2.75 µg/mL)
CNC(=O)C(C(=O)NO)N(C)C(=O)c1ccc(C#Cc2ccc(CNCc3ccccn3)cc2)cc1 (centres unmarked) [Compound 28] | 3.1 µM (≈ 1.51 µg/mL) | ≤0.1 µM | 3.1 µM (≈ 1.51 µg/mL) | 6.3 µM (≈ 3.06 µg/mL) | 12.5 µM (≈ 6.07 µg/mL) | 1.6 µM (≈ 0.777 µg/mL) | 1.6 µM (≈ 0.777 µg/mL) | 6.3 µM (≈ 3.06 µg/mL) | 0.2 µM (≈ 0.0971 µg/mL) | 3.1 µM (≈ 1.51 µg/mL)
CNC(=O)C(C(=O)NO)N(C)C(=O)c1ccc(C#Cc2ccc(CNCc3nccs3)cc2)cc1 (centres unmarked) [Compound 29] | 3.1 µM (≈ 1.52 µg/mL) | 0.8 µM (≈ 0.393 µg/mL) | 6.3 µM (≈ 3.1 µg/mL) | 6.3 µM (≈ 3.1 µg/mL) | 12.5 µM (≈ 6.14 µg/mL) | 1.6 µM (≈ 0.787 µg/mL) | 1.6 µM (≈ 0.787 µg/mL) | 12.5 µM (≈ 6.14 µg/mL) | 0.2 µM (≈ 0.0983 µg/mL) | 3.1 µM (≈ 1.52 µg/mL)
C#CCNCc1ccc(C#Cc2ccc(C(=O)N(C)C(C(=O)NC)C(=O)NO)cc2)cc1 (centres unmarked) [Compound 30] | 1.6 µM (≈ 0.692 µg/mL) | 0.4 µM (≈ 0.173 µg/mL) | 1.6 µM (≈ 0.692 µg/mL) | 0.8 µM (≈ 0.346 µg/mL) | 3.1 µM (≈ 1.34 µg/mL) | 0.4 µM (≈ 0.173 µg/mL) | 0.8 µM (≈ 0.346 µg/mL) | 1.6 µM (≈ 0.692 µg/mL) | ≤0.1 µM | 0.8 µM (≈ 0.346 µg/mL)
